Legend:
[1] = Determination of brain tissue binding (equilibrium dialysis); assay type: in vitro ADME; details: Sprague Dawley, rat whole brain homogenate, 5 h at 37° C.
Method: Sprague Dawley rat whole blood, collected on the week of the experiment using K3-EDTA as an anti-coagulant, is diluted with isotonic phosphate buffer 1:1 (v/v). Sprague Dawley rat whole brain, stored frozen at −20° C., is thawed and homogenised in artificial cerebrospinal fluid (CSF) 1:2 (w/v).
An appropriate amount of test compound is dissolved in DMSO to give a 10 millimolar solution. Further dilutions, to obtain a 166.7 micromolar working solution are then prepared using 50% acetonitrile in MilliQ water. This working solution is used to spike the blood to obtain a final concentration of 0.5 micromolar in whole blood. Similarly, the working solution is used to spike brain samples to obtain a final concentration of 5 micromolar in whole brain. From these spiked blood and brain preparations, control samples (n=3), are immediately extracted and used to calculate the initial recovery of the test items.
150 microL of compound-free buffer (isotonic phosphate buffer for blood or artificial CSF buffer for brain) is dispensed in one half-well and 150 microL of spiked matrix (blood or brain) is loaded in the other half-well, with the two halves separated by a semi-permeable membrane. After an equilibration period of 5 h at 37° C., 50 microL of dialysed matrix (blood or brain) is added to 50 microL of corresponding compound-free buffer, and vice-versa for buffer, such that the volume of buffer to matrix (blood or brain) remains the same. Samples are then extracted by protein precipitation with 300 microL of acetonitrile containing rolipram (control for positive ionization mode) or diclofenac (control for negative ionization mode) as internal standards and centrifuged for 10 min at 3000 rpm. Supernatants are collected (100 microL), diluted with 27% AcN in MilliQ water (200 microL) and then injected into an HPLC-MS/MS or UPLC-MS/MS system to determine the concentration of test compound present.
Blood and brain tissue binding are then determined using the following formulas: Afu=Buffer/Blood or Afu=CSF/Brain
Where Afu=apparent fraction unbound; Buffer=analyte/internal standard ratio determined in the buffer compartment; Blood=analyte/internal standard ratio determined in the blood compartment; Brain=analyte/internal standard ratio determined in the brain compartment.
[formula] where: fucr=Fraction unbound corrected; D=matrix dilution factor (D=2 for blood and D=3 for brain).
Then: % Binding=(1−fucr)×100 % Unbound=100−% Bound Brain/Blood Partition Ratio (Kbb) Determination

[2] = In vitro metabolic stability study in human hepatocytes; assay type: in vitro ADME; details: for In vitro CLint / Rate constant k: 0.5 uM, human cryopreserved hepatocytes, 37° C.; for Rate constant k: up to 180 min; for clearance in human hepatocytes (in words): compared to pyridine comparator compounds RE11 and RE13
Method: The objective of this study was to determine metabolic stability in mixed gender human cryopreserved hepatocytes. Testosterone and 7-Hydroxycoumarin were used as positive controls for Phase I and Phase II metabolism, respectively.
Incubation medium was prepared by combining William's medium E, HEPES buffer 1 M and L-glutamine 200 mM in the following proportions: 88%, 10% and 2%, respectively (440 mL, 50 mL and 10 mL, respectively). The medium obtained was bubbled with carbogen (5% CO2, 95% O2) for 30 minutes prior to use. Cryopreserved hepatocytes were thawed and suspended in incubation medium pre-warmed at 37° C. Cells were centrifuged, re-suspended in medium and counted by means of a haemocytometer (Burker's chamber). Cell viability was measured using the Trypan Blue exclusion test.
Test compounds were separately dissolved in DMF to obtain 50 mM stock solutions that were further diluted in water/acetonitrile 50/50 (v/v) to obtain the corresponding 50 uM working solutions. Testosterone and 7-Hydroxy-Coumarin were dissolved in DMF in order to obtain a 50 mM Testosterone solution and 5 mM 7-Hydroxy-Coumarin solution. These solutions were then diluted in the incubation medium in order to obtain a 1 mM Testosterone working solution and a 500 uM 7-Hydroxy-Coumarin working solution.
10 μL of each working solution, i.e. 50 uM test compound, 1 mM Testosterone and 500 uM of 7-Hydroxy-Coumarin were added to 990 μL of 0.5×10^6 cell suspensions in order to obtain the final concentrations of 0.5 uM, 10 uM and 5 uM, respectively. The concentration of the organic solvent in each incubation was constant and <1% (v/v).
Test compounds were separately incubated at 0.5 uM for 0, 5, 10, 15, 20, 30, 45, 60, 90, 120, 150 and 180 min (12 time points) with mixed gender human cryopreserved hepatocytes at 37° C. in a 24 well plate. At each time point a robotic handling processor aspirated 50 μL of incubation mixture from each well and dispensed it into a refrigerated 96 well plate, containing 100 μL of acetonitrile with the corresponding internal standard 150 ng/mL to stop the reaction. Then an aliquot of water (120 uL) was added to equilibrate the organic solvent content at 37%. Samples were centrifuged (ca. 3500 g for 10 minutes) prior to LC MS/MS analysis.
Metabolic stability was calculated from the peak area ratio of the remaining test compound with internal standard versus time.
The intrinsic clearance (CLint) was determined from the first order elimination constant k (min^−1) (obtained from GraphPad by plotting the natural logarithm of the peak area ratio of the remaining test item with internal standard versus time), using the actual volume of the incubation V (mL), the amount of hepatocytes in the incubation M (million cells) and the hepatocellularity number per g liver Hn (120 for human).
Values for CLint were expressed as mL/min/g liver.

Row | Structure (SMILES) | fraction unbound at 5 h, 5 micromolar [1] | In vitro CLint [2] [mL/min/g liver] | Rate constant k [2] [min⁻¹] | clearance in human hepatocytes (in words) [2]
1 | CC[C@H]1NC(=O)N(c2cnc(Oc3ccc(C)c4c3C3(CC3)CO4)cn2)C1=O [Example 9, (5R)-5-ethyl-3-[5-(7-methylspiro[2H-benzofuran-3,1′-cyclopropane]-4-yl)oxypyrazin-2-yl]imidazolidine-2,4-dione] | 0.03 | 1.03 | 0.004 | low clearance
2 | CC[C@H]1NC(=O)N(c2cnc(Oc3cccc4c3C3(CC3)CO4)cn2)C1=O [Example 10, (5R)-5-ethyl-3-(5-spiro[2H-benzofuran-3,1′-cyclopropane]-4-yloxypyrazin-2-yl)imidazolidine-2,4-dione] | 0.087 | 0.70 | 0.003 | low clearance
3 | Cc1ccc(Oc2ncc(N3C(=O)NC(C)(C)C3=O)cn2)c2c1OCC21CC1 [RE5, reference compound] | 0.051 | 0.31 | 0.002 | 
4 | CC[C@H]1NC(=O)N(c2ccc(Oc3ccc(C)c4c3C3(CC3)CO4)nc2)C1=O [RE11, reference compound] | 0.021 | 3.58 | 0.02 | 
5 | CC[C@H]1NC(=O)N(c2ccc(Oc3cccc4c3C3(CC3)CO4)nc2)C1=O [RE13, (5R)-5-ethyl-3-(6-spiro[2H-benzofuran-3,1′-cyclopropane]-4-yloxy-3-pyridyl)imidazolidine-2,4-dione, reference compound] | 0.062 | 2.16 | 0.009 | 

From patent publication US12358901B2, “KV3 modulators” (priority 2018, dated 2025)
